“Also recorded” adds a separate entry of the source.
What was measured:
Format in all cases: physicochemical
[1] = XRPD after heating or drying (solid form conversion)
Experimental: X-ray powder diffraction (XRPD) analysis was carried out on a Siemens D5000, scanning the samples between 3 and 30 or 50° 2-theta. For samples <100 mg, ca. 5-10 mg of sample was gently compressed onto a glass slide which fitted into the sample holder. For samples >100 mg, ca. 100 mg of sample was gently compressed into a plastic sample holder, so that the sample surface was smooth and just above the level of the sample holder. Measurements were made as follows: In order to determine the relationship between Forms A and B, a sample of Form B was heated to 120° C. and then XRPD analysis was carried out. […] To determine whether Form C remains the same after losing the solvent present, a sample of Form C was heated to 120° C. (i.e., just past the temperature at which the solvent is removed) and then XRPD analysis was carried out. […] In order to determine whether Form E remains the same after losing the solvent present, a sample of Form E was heated to 120° C. (i.e., just past the temperature at which the solvent is lost) and then XRPD analysis was carried out. […] In order to determine whether Form F remains the same after losing the solvent present, a sample of Form F was heated to 120° C. (i.e., just past the temperature at which the solvent is lost) and then XRPD analysis was carried out. […] To examine whether Form H changes to Form A after heating to 115° C. (point after the solvent loss), the Form H material was heated to 115° C. and XRPD analysis and DSC analysis were then carried out. […] The DSC analysis (FIG. 49) indicated overlapping endotherms between ca. 115-135° C., followed by an exotherm at peak 143.9° C., likely indicating a polymorphic transition. A final endotherm was present at onset 202.7° C. (peak 206.6° C.) corresponding with the Form A melt.

[2] = Dynamic vapour sorption (DVS) with post DVS XRPD; details: for DVS water uptake: between 20 and 70% RH
Experimental: For dynamic vapour sorption (DVS), approximately 10 mg of sample was placed into a wire mesh vapour sorption balance pan and loaded into a DVS-1 dynamic vapour sorption balance by Surface Measurement Systems. The sample was subjected to a ramping profile from 20-90% relative humidity (RH) at 10% increments, maintaining the sample at each step until a stable weight had been achieved (99.5% step completion). After completion of the sorption cycle, the sample was dried using the same procedure, but all the way down to 0% RH and finally taken back to the starting point of 20% RH. The weight change during the sorption/desorption cycles were plotted, allowing for the hygroscopic nature of the sample to be determined.

[3] = Stability at 40° C./75% RH for 1 week and 2 weeks (XRPD and HPLC); details: open container
Experimental: Samples of each form were exposed to an environment of 40° C./75% RH for 1 week and 2 week periods to determine stability. Resulting solids were analysed by XRPD and HPLC to establish if any changes had occurred.

[4] = Aqueous solubility: slurries in deionised water, HPLC; details: slurry in deionised water shaken ca. 24 hours; for aqueous solubility: assessment in words
Experimental: Slurries of all each polymorphic form were created in deionised water and shaken for ca. 24 hours. The resulting solid was then analysed by HPLC to determine the concentration of material dissolved.

[5] = ambient under vacuum 7 days, then 2 days at 40° C.

SMILES | XRPD after drying [1, 5] | XRPD after heating ([1]; heated to 120° C.) | DVS analysis observation [2] | Post DVS XRPD (solid form) [2] | HPLC purity after storage ([3]; 1 week) | XRPD analysis after storage ([3]; 1 week) | HPLC purity after storage ([3]; 2 week) | XRPD analysis after storage ([3]; 2 week) | detection by HPLC analysis for the aqueous solubility [4] | aqueous solubility [4] | XRPD after heating ([1]; heated to 160° C.) | hygroscopicity (DVS) [2] | DVS water uptake [2] [%] | XRPD after drying ([1]; 80° C. for 4 days)
C=CC(=O)Nc1cccc(Nc2nc(Nc3ccc(N4CCN(C(C)=O)CC4)cc3OC)ncc2C(F)(F)F)c1 [Form C, N-(3-(2-(4-(4-acetylpiperazin-1-yl)-2-methoxyphenylamino)-5-(trifluoromethyl)pyrimidin-4-ylamino)phenyl)acrylamide] | some loss in crystallinity and converted to Form A | converted to Form A | contain solvent, which is lost as the relative humidity is increased | converted to Form A | ca. 97.1% | converted to Form A with some loss in crystallinity | ca. 96.8% | poorly crystalline with the peaks present corresponding with Form A | could not be detected | poor | – | – | – | –
C=CC(=O)Nc1cccc(Nc2nc(Nc3ccc(N4CCN(C(C)=O)CC4)cc3OC)ncc2C(F)(F)F)c1 [Form B, N-(3-(2-(4-(4-acetylpiperazin-1-yl)-2-methoxyphenylamino)-5-(trifluoromethyl)pyrimidin-4-ylamino)phenyl)acrylamide] | – | mixture of Form B and Form A | – | remained Form B | ca. 96.8% | predominantly amorphous | ca. 95.9% | predominantly amorphous | could not be detected | poor | converted predominantly to Form A | non-hygroscopic | 0.74 | –
C=CC(=O)Nc1cccc(Nc2nc(Nc3ccc(N4CCN(C(C)=O)CC4)cc3OC)ncc2C(F)(F)F)c1 [Form G, N-(3-(2-(4-(4-acetylpiperazin-1-yl)-2-methoxyphenylamino)-5-(trifluoromethyl)pyrimidin-4-ylamino)phenyl)acrylamide] | converted to Form A | – | contain significant amounts of solvent that are lost as the relative humidity is increased | converted to Form A | ca. 96.8% | converted predominantly to Form A, with some loss in crystallinity | ca. 96.2% | converted predominantly to Form A, with some loss in crystallinity | – | poor | – | – | – | converted to Form A
C=CC(=O)Nc1cccc(Nc2nc(Nc3ccc(N4CCN(C(C)=O)CC4)cc3OC)ncc2C(F)(F)F)c1 [Form E, N-(3-(2-(4-(4-acetylpiperazin-1-yl)-2-methoxyphenylamino)-5-(trifluoromethyl)pyrimidin-4-ylamino)phenyl)acrylamide] | lost some crystallinity and converted to Form A | converted to Form A | – | converted to Form A | ca. 97.7% | predominantly amorphous with visible peaks present corresponding with Form A | ca. 97.3% | predominantly amorphous with visible peaks present corresponding with Form A | could not be detected | extremely poor | – | – | 0.25 | –
C=CC(=O)Nc1cccc(Nc2nc(Nc3ccc(N4CCN(C(C)=O)CC4)cc3OC)ncc2C(F)(F)F)c1 [Form D, N-(3-(2-(4-(4-acetylpiperazin-1-yl)-2-methoxyphenylamino)-5-(trifluoromethyl)pyrimidin-4-ylamino)phenyl)acrylamide] | – | – | contain solvent which is lost as the relative humidity is increased | converted completely to Form B | ca. 96.5% | converted completely to Form B with some loss in crystallinity | ca. 95.5% | poorly crystalline with the peaks present corresponding with Form B | could not be detected | extremely poor | – | – | – | –
C=CC(=O)Nc1cccc(Nc2nc(Nc3ccc(N4CCN(C(C)=O)CC4)cc3OC)ncc2C(F)(F)F)c1 [Form F, N-(3-(2-(4-(4-acetylpiperazin-1-yl)-2-methoxyphenylamino)-5-(trifluoromethyl)pyrimidin-4-ylamino)phenyl)acrylamide] | lost some crystallinity and converted predominantly to Form A | converted predominantly to Form A | contain solvent, which is lost as the relative humidity is increased | converted predominantly to Form A (traces of Form F remaining) | ca. 96.8% | converted to Form A, with some loss in crystallinity | ca. 96.3% | partially crystalline with peaks present corresponding with Form A | could not be detected; also recorded: below the limit of quantification | poor | – | – | – | –
